Key:
[1] = system: FKBP52-regulated AR activity; assay: AR-dependent luciferase reporter assay in 52KO mouse embryonic fibroblast cells with or without FKBP52; assay type: cell-based; details: 52KO MEF cells, DHT treated
Procedure: (§1) FIG. 3. The FKBP52-specific inhibitor GMC1 inhibits AR and GR activity. (A) Representative AR- and GR-mediated luciferase reporter assays in MDA-kb2 cells with a range of GMC1 concentrations. The average IC50 from 4 independent experiments are shown. (B) A representative luciferase reporter assay in 52KO mouse embryonic fibroblast cells in the presence or absence of FKBP52 were performed. Transfected cells were treated with DHT and a range of concentrations of GMC1 and assessed for AR-dependent expression of a luciferase reporter. The average IC50 of 3 independent assays is shown. (C-D) ELISA assays measuring androgen-dependent PSA secretion form LNCaP (C) and 22Rv1 (D) prostate cancer cells treated with the indicated concentrations of GMC1.

GR = assay: GR-mediated luciferase reporter assay in MDA-kb2 cells; assay type: cell-based
Procedure: as §1

[2] = system: 22Rv1 prostate cancer cells; assay: qPCR of endogenous PSA gene expression in 22Rv1 cells; assay type: cell-based; details: absence of hormone
Text: (§2) FIG. 4. GMC1 inhibits hormone-dependent and +independent PSA secretion and hormone dependent proliferation in 22Rv1 prostate cancer cells. (A) ELISA assay in 22Rv1 cells measuring GMC1 effects on PSA secretion in the presence and absence of hormone. (B) qPCR assay in 22Rv1 cells measuring endogenous PSA gene expression in the presence or absence of hormone. For comparison, GMC1, but not MJC13, inhibits hormone-independent PSA secretion and/or expression. (C) A BrdU incorporation assay was used to assess GMC1 effects on hormone-dependent 22Rv1 cell proliferation.

[3] = system: 22Rv1 prostate cancer cells; assay: ELISA of PSA secretion from 22Rv1 cells in the presence and absence of hormone; assay type: cell-based; details: for inhibition of hormone-independent PSA secretion (ELISA): absence of hormone
Procedure: as §1, §2

[4] = system: 22Rv1 prostate cancer cells; assay: BrdU incorporation assay of hormone-dependent 22Rv1 cell proliferation; assay type: cell-based; details: 22Rv1 cells
Text: as §2

[5] = system: LNCaP prostate cancer cells; assay: ELISA of androgen-dependent PSA secretion from LNCaP cells; assay type: cell-based; details: preliminary
Procedure: as §1

AR = assay: AR-mediated luciferase reporter assay in MDA-kb2 cells; assay type: cell-based; details: among 40 hits from the virtual screen
Procedure: as §1

[6] = molecular target: T1, β-catenin interaction with AR (Homo sapiens, UniProt P10275); assay: β-catenin interaction with AR; details: targeting to the AR BF3 surface
T1 sequence (P10275 1-920): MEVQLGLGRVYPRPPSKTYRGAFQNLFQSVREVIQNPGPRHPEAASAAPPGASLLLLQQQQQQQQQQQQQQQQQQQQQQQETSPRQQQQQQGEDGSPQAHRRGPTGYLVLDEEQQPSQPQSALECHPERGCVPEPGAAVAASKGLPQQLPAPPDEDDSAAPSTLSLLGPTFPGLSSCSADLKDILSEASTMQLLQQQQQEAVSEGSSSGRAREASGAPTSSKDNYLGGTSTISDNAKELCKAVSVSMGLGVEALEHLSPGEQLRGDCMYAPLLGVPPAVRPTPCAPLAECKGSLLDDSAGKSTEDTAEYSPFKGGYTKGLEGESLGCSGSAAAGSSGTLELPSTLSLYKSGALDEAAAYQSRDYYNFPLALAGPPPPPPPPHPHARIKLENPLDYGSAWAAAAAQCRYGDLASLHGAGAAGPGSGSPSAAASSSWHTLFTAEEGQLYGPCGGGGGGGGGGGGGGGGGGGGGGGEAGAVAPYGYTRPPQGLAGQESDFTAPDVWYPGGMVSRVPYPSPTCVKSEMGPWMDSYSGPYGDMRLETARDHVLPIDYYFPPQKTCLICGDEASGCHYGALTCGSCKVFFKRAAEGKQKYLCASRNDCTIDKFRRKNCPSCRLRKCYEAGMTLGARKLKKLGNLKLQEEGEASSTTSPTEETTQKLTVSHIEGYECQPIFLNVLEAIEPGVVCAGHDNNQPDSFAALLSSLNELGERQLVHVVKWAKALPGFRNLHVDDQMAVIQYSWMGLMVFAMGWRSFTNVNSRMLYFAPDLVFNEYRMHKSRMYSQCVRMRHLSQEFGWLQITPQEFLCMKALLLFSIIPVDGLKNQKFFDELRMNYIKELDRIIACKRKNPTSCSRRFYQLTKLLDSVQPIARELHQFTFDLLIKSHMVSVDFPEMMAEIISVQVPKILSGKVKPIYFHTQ
Text: MJC13 is described as an inhibitor of FKBP52-regulated AR activity (De Leon et. al. 2011. PNAS. 108 (29): 11878-83) by targeting the AR BF3 surface. A novel mechanism is disclosed by which FKBP52 and β-catenin interact to co-regulate AR activity in prostate cancer cells. […] Specific small molecules docked within the PPIase pocket affect proline-rich loop conformation and interactions. […] Thus, small molecules predicted to target the FKBP52 PPIase pocket have been identified in the disclosed embodiments.

[7] = system: prostate cancer xenograft; details: prostate cancer xenograft model; preliminary preclinical studies; cited from earlier work
[8] = system: human prostate cancer cell lines; details: cited from earlier work
[9] = variety of human prostate cancer cell lines

Row | effect on β-catenin interaction with AR [6] | Compound | inhibition of FKBP52-regulated AR activity (effective concentration range) [1] | inhibition of FKBP52-regulated GR activity (effective concentration range) (GR) | inhibition of hormone-independent PSA gene expression (qPCR) [2] | inhibition of hormone-independent PSA secretion (ELISA) [3] | inhibition of AR-dependent (hormone-dependent) PSA expression/secretion (ELISA) ([3]; with hormone) | inhibition of hormone dependent proliferation (BrdU incorporation) [4] | inhibition of AR-dependent PSA expression (ELISA) [5] | inhibition of AR-mediated reporter gene expression (AR) | effects on tumor growth [7] | effective drug concentrations (AR BF3 surface targeting) [8] | block of AR signaling [8, 9] | block of AR-dependent cancer cell proliferation [8, 9]
1 | – | COc1ccc(/C=N/NC(=O)CSc2nc3ccccc3[nH]2)cc1 [GMC1, 2-(1H-benzimidizol-2-ylsulfanyl)-N—[(Z)-(4methoxyphenyl)methylideneamino]acetamide] | high nanomolar range | high nanomolar range | inhibits | inhibits | inhibits | inhibits | inhibits | most potent inhibition | – | – | – | –
2 | abrogates | O=C(Nc1cccc(Cl)c1Cl)C1CCCCC1 [MJC13] | – | – | not | not | – | – | – | – | impressive effects on tumor growth | low micromolar range | effectively block | effectively block

From patent publication US10682339B2, “Pharmaceutical compositions directly targeting FKBP52 for the treatment of prostate cancer and methods of using same” (THE BOARD OF REGENTS OF THE UNIVERSITY OF TEXAS SYSTEM, priority 2014, dated 2020)
